# Data from patent US20130136691A1, “GASTRIN […] PEPTIDE COMPOUNDS” (priority 2008, published 2013).
# Legend:
# NMB-R = target: T1, NMB-R (Rattus norvegicus, UniProt P24053); assay: Competition with 125I-NMB for NMB-R in C6 cells; assay type: binding, rodent; conditions: cut off 10× the IC50 of [Tyr4]-BBN; for receptor subtype preference (GRP-R versus NMB-R): from IC50 with 125I-NMB on C6 cells and 125I-BBN on PC3 cells; for GRP-R and NMB-R (binds both with similar affinity): class from IC50 with 125I-NMB on C6 cells
# T1 construct: C6, an NMB-R expressing rodent glioblastoma cell line; host or cells: C6 glioma cells (intact, plated)
# T1 sequence (P24053 1-390): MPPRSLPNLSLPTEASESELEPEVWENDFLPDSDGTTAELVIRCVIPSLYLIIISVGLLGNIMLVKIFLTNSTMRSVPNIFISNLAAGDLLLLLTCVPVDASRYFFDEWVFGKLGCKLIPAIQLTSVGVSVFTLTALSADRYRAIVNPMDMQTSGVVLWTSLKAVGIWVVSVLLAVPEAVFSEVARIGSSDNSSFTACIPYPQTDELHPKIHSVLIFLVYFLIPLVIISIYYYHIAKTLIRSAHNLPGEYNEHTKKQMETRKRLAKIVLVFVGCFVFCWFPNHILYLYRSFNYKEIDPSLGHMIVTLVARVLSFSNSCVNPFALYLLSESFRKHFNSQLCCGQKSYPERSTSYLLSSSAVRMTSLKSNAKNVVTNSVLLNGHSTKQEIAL
# Procedure: Two cell lines, C6, an NMB-R expressing rodent glioblastoma cell line and PC3, a GRP-R expressing human prostate cancer cell line, were used in this assay. The affinity of various unlabeled compounds for each receptor subtype (NMB-R and GRP-R) was determined indirectly by measuring its ability to compete with the binding of ^125I-NMB or ^125I-BBN to its corresponding receptors in C6 and PC3 cells.
# Cells for the assays were plated at a concentration of 9.6×10^4/well in 48 well poly-lysine coated plates (Beckton Dickinson Biocoat). PC3 were obtained from ATCC(CRL-1435) and cultured in RPMI 1640 (ATCC) supplemented with 2 mM L-glutamine, 1.5 g/L Sodium bicarbonate, 10 mM HEPES and 10% FBS. […] PC3 cells for the assays were plated at a concentration of 2.0×10^4 cells/well in 96-well white/clear bottom plates (Falcon Optilux-I). Plates were used for the assays on day 2 of the post-plating.
# RPMI 1640 (ATCC) containing 25 mM HEPES, 0.2% BSA fraction V, 1.0 mM AEBSF (CAS #3087-99-7) and 0.1% Bacitracin (CAS #1405-87-4), pH 7.4. Custom made ^125I-[Tyr°]NMB, >2.0 Ci/mole (Amersham Life Science) [^125I-NMB] and commercially available ^125I-[Tyr^4]BBN, >2.0 Ci/mole (Perkin Elmer Life Science) [^125I-BBN] were used as radioligands.
# Using a 48-well plate assay system (for C6 study) competition experiments were performed using ^125I-NMB. […] Selection of compounds for the assay was based on linker subtype.
# The binding parameters obtained from the studies were analyzed using a one-site competition non-linear regression analysis with GraphPad Prism. The relative affinity of various compounds for NMB-R in C6 cells were compared with those obtained using commercially available [Tyr^4]-BBN and [Tyro]-NMB. To distinguish the GRP-R preferring compounds from NMB-R plus GRP-R preferring compounds, IC50 values obtained for each compound were compared with those obtained from [Tyr^4-BBN with ^125I-NMB on C6 cells.
# PC3 cells = assay: Internalization and efflux assay in PC3 cells (125I-BBN, 177Lu complexes); assay type: cell-based, human; conditions: 37° C., 125I-BBN and Lu-177 complexes; for Efflux (2 h): after 40 min loading
# Procedure: These studies were conducted in a 96-well plate. […] Incubations were stopped by the addition of 200 μl of ice-cold binding buffer. Plates were washed twice with binding buffer. To remove surface-bound radioligand, the cells were incubated with 0.2M acetic acid (in saline), pH 2.8 for 2 min. Plates were centrifuged and the acid wash media were collected to determine the amount of radioactivity which was not internalized. The cells were collected to determine the amount of internalized ^125I-BBN, and all samples were analyzed in the gamma counter. Data for the internalization assay was normalized by comparing counts obtained at the various time points with the counts obtained at the final time point (T=40 min).
# For the efflux studies, after loading the PC3 cells with ^125I-BBN or radiolabeled compounds of the invention for 40 min at 37° C., the unbound material was filtered, and the % of internalization was determined as above. The cells were then resuspended in binding buffer at 37° C. for up to 3 h.
# [1] = tested on: PC3 tumor-bearing nude mouse model; assay: Radiotherapy efficacy studies (short and long term survival); assay type: in vivo; conditions: 177Lu labeled; for survival, Short Term Efficacy Study: 30 mCi/kg i.v. or s.c., versus untreated control and DO3A-monoamide-Aoc-QWAVGHLM-NH2 control; for survival, Long Term Efficacy Study: 30 mCi/kg, up to 120 days, n=46, p<0.0001 versus controls
# Procedure: Radiotherapy studies were performed using the PC3 tumor-bearing nude mouse model. […] (n=12 for each treatment group for up to days, and n=36 for the pooled untreated control group for up to 31 days). […] The subjects were housed in a barrier environment for the duration of the study. Body weight and tumor size (by caliper measurement) were collected on each subject 3 times per week for the duration of the study. Criteria for early termination included: death; loss of total body weight (TBW) equal to or greater than 20%; tumor size equal to or greater than 2 cm^3.
# [2] = tested on: GRP receptor binding in T47D human breast cancer cells; assay: Effect of drug treatment on GRP receptor binding (177Lu-AMBA) and proliferation in T-47D cells; assay type: cell-based; conditions: for increase in 177Lu-AMBA binding (GRP receptor specific signal per cell) / decrease in 177Lu-AMBA binding (GRP receptor specific signal per cell): relative to untreated control; for increase in 177Lu-AMBA binding (GRP receptor specific signal per cell): drug 0.1-1.0 μM (gefitinib 0.1-10 μM); for change in 177Lu-AMBA binding (GRP receptor specific signal per cell), T47D: Table 25, range 0.001-0.1 μM, vs untreated controls; for decrease in 177Lu-AMBA binding (GRP receptor specific signal per cell): drug 0.1-1.0 μM (4-OH Tamoxifen 0.001-0.1 μM); for GRP receptor specific signal per cell (177Lu-AMBA binding) versus untreated controls, in words: drug 0.1-1.0 μM (β2-estradiol 1 nM)
# From the text: T-47D breast cancer cells (human metastatic mammary gland ductal adenocarcinoma isolated from pleural effusion, ER+, PR+) were obtained from the American Type Culture Collection.
# [3] = tested on: GRP receptor binding in PC-3 prostate cancer cells; assay: Effect of drug treatment on GRP receptor binding (177Lu-AMBA) and proliferation in PC-3 cells; conditions: for decrease in 177Lu-AMBA binding (GRP receptor specific signal per cell): drug 0.1-1.0 μM (gefitinib 0.1-10 μM); for change in 177Lu-AMBA binding (GRP receptor specific signal per cell), PC-3: Table 25, range 0.001-0.1 μM, vs untreated controls; for GRP receptor specific signal per cell (177Lu-AMBA binding) versus untreated controls, in words: drug 0.1-1.0 μM (4-OH Tamoxifen 0.001-0.1 μM)
# Procedure: (§1) RPMI 1640 supplemented with 20 mM HEPES, 0.1% BSA (w/v), 0.5 mM PMSF (AEBSF), bacitracin (50 mg/500 ml), pH 7.4.
# (§2) Treatment: BT-474 cells were plated on Day 0 (see above); approximately 24-48 h after plating, treatment Days 1 and 2 (DT1, DT2), the medium was removed and replaced with fresh growth medium (control), or growth medium with the addition of lapatinib (0.1-1.0 μM). […] Incubations were stopped by the addition of 200 μL of ice-cold binding buffer. Plates were washed three more times with binding buffer, 140 μL of scintillation fluid was added to each well, the plates were sealed and analyzed on a Microp plate reader (Microbeta Trilux, Perkin-Elmer).
# (§3) Treatment: BT-474 cells were plated on Day 0 and treated on Days 1 and 2 (DT1, DT2).
# [4] = tested on: GRP receptor binding in BT-474 human breast cancer cells; assay: Effect of drug treatment on GRP receptor binding (177Lu-AMBA) and proliferation in BT-474 cells; conditions: for GRP receptor specific signal per cell (177Lu-AMBA binding) versus untreated controls, in words: drug 0.1-1.0 μM (gefitinib 0.1-10 μM); for change in 177Lu-AMBA binding (GRP receptor specific signal per cell), BT-474: Table 25, range 0.001-0.1 μM, vs untreated controls; for decrease in 177Lu-AMBA binding (GRP receptor specific signal per cell): relative to untreated control, drug 0.1-1.0 μM (4-OH Tamoxifen 0.001-0.1 μM)
# Procedure: Cells for binding experiments were plated on Day 0 at 5.6×10^4 cells/cm^2 in 96-well white/clear bottom microtiter plates (Falcon Optilux-I), or 96 well black/clear collagen I cellware plates (Beckton Dickinson Biocoat).
# as §1, §2, §3
# [5] = PC-3, relative to untreated control
compound,measurement,setting,value
"N-[4-[[[[4,7,10-Tris(carboxymethyl)-1,4,7,10-tetraazacyclododec-1-yl]acetyl]glycyl]amino]-3-methoxybenzoyl]-L-glutaminyl-L-tryptophyl-1-alanyl-L-valyl-glycyl-L-histidyl-L-leucyl-L-methioninamide [Compound L240]",receptor subtype preference (GRP-R versus NMB-R),NMB-R,selective affinity to GRP-R
"CSCC[C@H](NC(=O)[C@H](CC(C)C)NC(=O)[C@H](Cc1c[nH]cn1)NC(=O)CNC(=O)[C@@H](NC(=O)[C@H](C)NC(=O)[C@H](Cc1c[nH]c2ccccc12)NC(=O)[C@H](CCC(N)=O)NC(=O)CC[C@@H](C)[C@H]1CC[C@H]2[C@@H]3CC[C@@H]4C[C@@H](NC(=O)CNC(=O)CN5CCN(CC(=O)O)CCN(CC(=O)O)CCN(CC(=O)O)CC5)CC[C@]4(C)[C@H]3C[C@H](O)[C@]12C)C(C)C)C(N)=O [Compound L63, N-[(3β,5β,12α)-3-[[[[[4,7,10-Tris(carboxymethyl)-1,4,7,10-tetraazacyclododec-1-yl]acetyl]amino]acetyl]amino]-12-hydroxy-24-oxocholan-24-yl]-L-glutaminyl-L-tryptophyl-L-alanyl-L-valyl-glycyl-L-histidyl-L-leucyl-L-methioninamide]",Internalisation (40 minutes),PC3 cells,64%
same,Efflux (2 h),PC3 cells,0%
same,"survival, Short Term Efficacy Study",[1],increased survival
same,GRP-R and NMB-R (binds both with similar affinity),NMB-R,yes
same,receptor subtype preference (GRP-R versus NMB-R),NMB-R,dual affinity for both GRP-R and NMB-R
COc1cc2ncnc(Nc3ccc(F)c(Cl)c3)c2cc1OCCCN1CCOCC1 [gefitinib],increase in 177Lu-AMBA binding (GRP receptor specific signal per cell),[2]; T-47D,up to 20%
same,decrease in 177Lu-AMBA binding (GRP receptor specific signal per cell),[3]; [5],20-40%
same,"GRP receptor specific signal per cell (177Lu-AMBA binding) versus untreated controls, in words",[4]; BT-474,no change
"N-[4-[[[[[4,7,10-Tris(carboxymethyl)-1,4,7,10-tetraazacyclododec-1-yl]acetyl]amino]acetyl]amino]benzoyl]-L-glutaminyl-L-tryptophyl-L-alanyl-L-valyl-glycyl-L-histidyl-L-leucyl-L-methioninamide [Compound L70]",Internalisation (40 minutes),PC3 cells,70%
same,Efflux (2 h),PC3 cells,12%
same,"survival, Short Term Efficacy Study",[1],increased survival
same,"survival, Long Term Efficacy Study",[1],significantly increased survival
"CSCC[C@H](NC(=O)[C@H](CC(C)C)NC(=O)[C@H](Cc1c[nH]cn1)NC(=O)CNC(=O)[C@@H](NC(=O)[C@H](C)NC(=O)[C@H](Cc1c[nH]c2ccccc12)NC(=O)[C@H](CCC(N)=O)NC(=O)CC[C@@H](C)[C@H]1CC[C@H]2[C@@H]3[C@H](O)C[C@@H]4C[C@@H](NC(=O)CNC(=O)CN5CCN(CC(=O)O)CCN(CC(=O)O)CCN(CC(=O)O)CC5)CC[C@]4(C)[C@H]3C[C@H](O)[C@]12C)C(C)C)C(N)=O [Compound L64, N-[(3β,5β,7α,12α)-3-[[[[[4,7,10-Tris(carboxymethyl)-1,4,7,10-tetraazacyclododec-1-yl]acetyl]amino]acetyl]amino]-7,12-dihydroxy-24-oxocholan-24-yl]-L-glutaminyl-L-tryptophyl-L-alanyl-L-valyl-glycyl-L-histidyl-L-leucyl-L-methioninamide]",Internalisation (40 minutes),PC3 cells,69%
same,Efflux (2 h),PC3 cells,20%
same,"survival, Short Term Efficacy Study",[1],increased survival
same,"survival, Long Term Efficacy Study",[1],significantly increased survival
same,GRP-R and NMB-R (binds both with similar affinity),NMB-R,yes
same,receptor subtype preference (GRP-R versus NMB-R),NMB-R,dual affinity for both GRP-R and NMB-R
DO3A-monoamide-8-amino-octanoic acid-BBN (7-14),Internalisation (40 minutes),PC3 cells,89%
same,Efflux (2 h),PC3 cells,28%
CC/C(=C(\c1ccc(O)cc1)c1ccc(OCCN(C)C)cc1)c1ccccc1 [Compounds 4-OH-Tamoxifen],"change in 177Lu-AMBA binding (GRP receptor specific signal per cell), T47D",[2],−35%
same,"change in 177Lu-AMBA binding (GRP receptor specific signal per cell), PC-3",[3],0%
same,"change in 177Lu-AMBA binding (GRP receptor specific signal per cell), BT-474",[4],−73%
CC(C)(C#N)c1cc(Cn2cncn2)cc(C(C)(C)C#N)c1 [anastrozole],decrease in 177Lu-AMBA binding (GRP receptor specific signal per cell),[2]; T-47D,up to 10%
same,decrease in 177Lu-AMBA binding (GRP receptor specific signal per cell),[3]; [5],up to 10%
same,"GRP receptor specific signal per cell (177Lu-AMBA binding) versus untreated controls, in words",[4]; BT-474,no change
CC(C)C[C@H](NC(=O)[C@H](Cc1ccccc1)NC(=O)c1cnccn1)B(O)O [bortezomib],decrease in 177Lu-AMBA binding (GRP receptor specific signal per cell),[2]; T-47D,up to 50%
same,decrease in 177Lu-AMBA binding (GRP receptor specific signal per cell),[3]; [5],up to 60%
same,decrease in 177Lu-AMBA binding (GRP receptor specific signal per cell),[4]; BT-474,up to 50%
CNC(=O)c1cc(Oc2ccc(NC(=O)Nc3ccc(Cl)c(C(F)(F)F)c3)cc2)ccn1 [sorafenib],"GRP receptor specific signal per cell (177Lu-AMBA binding) versus untreated controls, in words",[2]; T-47D,no change
same,"change in 177Lu-AMBA uptake on a viable cell basis, T47D","[2]; Table 24, drug 0.1-1.0 μM (gefitinib 0.1-10, bortezomib 0.001-0.1), vs untreated control",NC (NC: Little (<10%) or no change in Lu-AMBA uptake)
same,decrease in 177Lu-AMBA binding (GRP receptor specific signal per cell),[3]; [5],10-20%
same,decrease in 177Lu-AMBA binding (GRP receptor specific signal per cell),[4]; BT-474,10-25%
CCN(CC)CCNC(=O)c1c(C)[nH]c(/C=C2\C(=O)Nc3ccc(F)cc32)c1C [sunitinib],increase in 177Lu-AMBA binding (GRP receptor specific signal per cell),[2]; T-47D,up to 13%
same,increase in 177Lu-AMBA binding (GRP receptor specific signal per cell),"[3]; PC-3, relative to untreated control, drug 0.1-1.0 μM",up to 10%
same,decrease in 177Lu-AMBA binding (GRP receptor specific signal per cell),[4]; BT-474,up to 8%
CS(=O)(=O)CCNCc1ccc(-c2ccc3ncnc(Nc4ccc(OCc5cccc(F)c5)c(Cl)c4)c3c2)o1 [lapatinib],decrease in cell proliferation,"[2]; T-47D, at the highest concentration",≤ 35%
same,increase in 177Lu-AMBA binding (GRP receptor specific signal per cell),[2]; T-47D,up to 50%
same,"proliferation versus untreated controls, in words","[3]; PC-3, 0.1-1.0 μM",no change
same,"GRP receptor specific signal per cell (177Lu-AMBA binding) versus untreated controls, in words",[3]; PC-3,no change
same,decrease in cell proliferation,"[4]; BT-474, at the highest concentration",≤ 65%
C#Cc1cccc(Nc2ncnc3cc(OCCOC)c(OCCOC)cc23)c1 [erlotinib],increase in 177Lu-AMBA binding (GRP receptor specific signal per cell),[2]; T-47D,5-20%
same,decrease in 177Lu-AMBA binding (GRP receptor specific signal per cell),[3]; [5],5-20%
same,"GRP receptor specific signal per cell (177Lu-AMBA binding) versus untreated controls, in words",[4]; BT-474,no change
C[C@]12CC[C@@H]3c4ccc(O)cc4CC[C@H]3[C@@H]1CC[C@@H]2O [β2-estradiol],"GRP receptor specific signal per cell (177Lu-AMBA binding) versus untreated controls, in words",[2]; T-47D,did not change
same,"change in 177Lu-AMBA binding (GRP receptor specific signal per cell), T47D",[2],0%
same,"GRP receptor specific signal per cell (177Lu-AMBA binding) versus untreated controls, in words",[3]; PC-3,no change
same,"change in 177Lu-AMBA binding (GRP receptor specific signal per cell), PC-3",[3],0%
same,"change in 177Lu-AMBA binding (GRP receptor specific signal per cell), BT-474",[4],47%
Cc1ccc(NC(=O)c2ccc(CN3CCN(C)CC3)cc2)cc1Nc1nccc(-c2cccnc2)n1 [imatinib],increase in 177Lu-AMBA binding (GRP receptor specific signal per cell),[2]; T-47D,up to 15%
same,decrease in 177Lu-AMBA binding (GRP receptor specific signal per cell),[3]; [5],15-25%
same,"GRP receptor specific signal per cell (177Lu-AMBA binding) versus untreated controls, in words",[4]; BT-474,no change
